From patent US10538497B2, “Compounds as indoleamine 2,3-dioxygenase inhibitors” (Merck Sharp & Dohme Corp., priority 2015, dated 2020)

How the values were obtained:
IDO1 [1] = target: T1, IDO1 (Homo sapiens (Human), UniProt P14902); assay: IDO1 Enzyme Assay; conditions: read-out: IDO1 Enzyme Assay, IC50; HIS-tagged recombinant IDO1, 40 nM
IDO1 [2] = target: T1, IDO1; assay: IDO1 Cellular Assay in Hela Cells Stimulated with IFNγ; assay type: cell-based; conditions: Hela cells stimulated with IFNγ 100 ng/mL; read-out: IDO1 HELA Cell Assay, IC50
IDO1 [3] = target: T1, IDO1; assay: IDO1 Cellular Assay in Frozen HEK293 Cells Transiently Transfected with Human IDO1; assay type: cell-based; conditions: HEK293 cells transiently transfected with human IDO1; read-out: IDO1 HEK293 Cell Assay, IC50
IDO1 [4] = target: T1, IDO1; assay: IDO1 Human Whole Blood Assay; assay type: cell-based; conditions: LPS and IFNγ 100 ng/mL, kynurenine by LC/MS/MS
Description: IDO1 Human Whole Blood Assay
LPS and IFNγ was prepared in RPMI to a 10× of final conc. (1000 ng/mL), final concentration is 100 ng/mL.
Human whole blood was drawn in sodium heparin coated tubes from healthy internal donors. Two hundred fourty μL of blood was transferred to each of the wells of a v-bottom 96 well plate. Thirty μL of compound was transferred from intermediate dilution plate, and incubated for 15 min. […] from stimulants was then transferred to blood and mixed thoroughly. Plate was covered with breathable membrane and incubated at 37° C. for overnight (18 h).
On day 2 isotope labeled standard of kunurenine and tryptophan was made in water at 10× concentration and 30 μL was added to the blood at 3 μM final concentration. The assay plates were centrifuged at 300×G for 10 min with no brake to separate plasma from red blood cells. Sixty μL of plasma samples was removed without disturbing red blood cells. Plasma was diluted with RPMI in 1:1 ratio and proteins were precipitated out with two volume of Acetonitrile. The plates was centrifuged at 4000×G for 60 min. Twenty μL of supernatant was carefully transferred to a 384 well plate contain 40 μL of 0.1% formic acid in water and analysed by LC/MS/MS.
LC/MS/MS analyses were performed using Thermo Fisher's LX4-TSQ Quantum Ultra system. This system consists of four Agilent binary high-performance liquid chromatography (HPLC) pumps and a TSQ Quantum Ultra triple quadrupole MS/MS instrument. For each sample, 5 μL were injected onto an Atlantis T3 column column (2.1 mm×150 mm, 3 μm particle size) from Waters. The mobile phase gradient pumped at 0.8 mL/min was used to elute the analytes from the column at 25° C. The elution started at 0% B increasing linearly to 25% B at 6.5 min, holding at 25% for 1 min, re-equilibrating to 10 min. Mobile phase A consisted of 0.1% formic acid in water. Mobile phase B consisted of 0.1% of formic acid in acetonitrile. Data was acquired in positive mode using a HESI interface. The operational parameters for the TSQ Quantum Ultra instrument were a spray voltage of 4000 V, capillary temperature of 380° C., vaporizer temperature 400° C., shealth gas 60 arbitrary units, Aux gas 20 arbitrary units, tube lens 85 and collision gas 1.2 mTorr. SRM chromatograms of kynurenine (Q1: 209.2>Q3:94.0) and internal standard (Q1: 215.3>Q3:98.2) were collected for 90 sec. The peak area was integrated by Xcalibur Quan software. The ratios between the kynurenine generated in the reaction and 2D6-Kynurenine spiked-in internal standard were used to generate percentage inhibition and IC50 values. Compounds were titrated and IC50's were calculated by 4 parameter sigmoidal curve fitting formula.

T1 sequence (P14902 whole entry): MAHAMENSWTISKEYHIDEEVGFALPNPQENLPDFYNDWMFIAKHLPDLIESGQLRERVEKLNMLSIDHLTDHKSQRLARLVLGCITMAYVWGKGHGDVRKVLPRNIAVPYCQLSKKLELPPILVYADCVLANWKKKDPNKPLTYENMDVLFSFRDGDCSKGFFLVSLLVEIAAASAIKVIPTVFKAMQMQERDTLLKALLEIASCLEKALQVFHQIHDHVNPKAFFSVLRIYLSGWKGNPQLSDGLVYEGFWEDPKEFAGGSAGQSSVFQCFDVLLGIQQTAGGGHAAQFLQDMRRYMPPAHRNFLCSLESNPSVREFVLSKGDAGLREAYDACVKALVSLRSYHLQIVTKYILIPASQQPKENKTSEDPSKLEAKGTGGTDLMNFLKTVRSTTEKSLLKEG

| Structure (SMILES) | IC50 (IDO1 [1]) [nM] | IC50 (IDO1 [2]) [nM] | IC50 (IDO1 [3]) [nM] | IC50 (IDO1 [4]) [nM] |
| --- | --- | --- | --- | --- |
| N#Cc1cc(N/C(=N\O)c2nonc2SC[C@@H](O)CO)ccc1F [Example 140, N-(3-cyano-4-fluorophenyl)-4-{[(2S)-2,3-dihydroxypropyl]sulfanyl}-N′-hydroxy-1,2,5-oxadiazole-3-carboximidamide] | 96.7 | 245 | 269 | 384 |
| CN1C(=O)NC[C@H]1CSc1nonc1/C(=N/O)Nc1ccc(F)c(C#N)c1 [Example 146] | 155 | 398 | 222 | 1400 |
| N#Cc1cc(N/C(=N\O)c2nonc2SC[C@H](O)CO)ccc1F [Example 147, N-(3-cyano-4-fluorophenyl)-4-{[(2R)-2,3-dihydroxypropyl]sulfanyl}-N′-hydroxy-1,2,5-oxadiazole-3-carboximidamide] | 154 | 494 | 373 | 1210 |
| N#Cc1cc(N/C(=N\O)c2nonc2SC[C@@H]2CCC(=O)N2)ccc1F [Example 149, N-(3-cyano-4-fluorophenyl)-N′-hydroxy-4-({[(2S)-5-oxopyrrolidin-2-yl]methyl}sulfanyl)-1,2,5-oxadiazole-3-carboximidamide] | 110 | 285 | 120 | 1050 |
| OC[C@@H](O)CSc1nonc1/C(=N/O)Nc1ccc(F)c(Cl)c1 [Example 169, N-(3-chloro-4-fluorophenyl)-4-{[(2R)-2,3-dihydroxypropyl]sulfanyl}-N′-hydroxy-1,2,5-oxadiazole-3-carboximidamide] | 52.8 | 191 | 93.7 | 1290 |
| CS(=O)(=O)NCCSc1nonc1/C(=N/O)Nc1ccc(F)c(C#N)c1 [Example 171, N-(3-cyano-4-fluorophenyl)-N′-hydroxy-4-({2-[(methylsulfonyl)amino]ethyl}sulfanyl)-1,2,5-oxadiazole-3-carboximidamide] | 110 | 120 | 30.8 | 660 |
| O=C(CSc1nonc1/C(=N/O)Nc1ccc(F)c(Br)c1)NC[C@H](O)CO [Example 175, 2-({4-[N-(3-bromo-4-fluorophenyl)-N′-hydroxycarbamimidoyl]-1,2,5-oxadiaxol-3-yl}sulfanyl)-N-[(2S)-2,3-dihydroxypropyl]acetamide] | 125 | 223 | 281 | 1720 |
| N#Cc1cc(N/C(=N\O)c2nonc2SCCNS(N)(=O)=O)ccc1F [Example 181, N-(3-cyano-4-fluorophenyl)-N′-hydroxy-4-{[2-(sulfamoylamino)ethyl]sulfanyl}-1,2,5-oxadiazole-3-carboximidamide] | 119 | 261 | 136 | 3240 |
| N#Cc1cc(N/C(=N\O)c2nonc2SCCNC(=O)CO)ccc1F [Example 182, N-[2-({4-[N-(3-cyano-4-fluorophenyl)-N′-hydroxycarbamimidoyl]-1,2,5-oxadiazol-3-yl}sulfanyl)ethyl]-2-hydroxyacetamide] | 135 | 321 | 186 | 526 |

Continued by falling IC50 (IDO1 [1]), values first:

| IC50 (IDO1 [1]) [nM] | IC50 (IDO1 [2]) [nM] | IC50 (IDO1 [3]) [nM] | IC50 (IDO1 [4]) [nM] | Structure (SMILES) |
| --- | --- | --- | --- | --- |
| 172 | 303 | 209 | 1760 | N#Cc1cc(N/C(=N\O)c2nonc2SC[C@H]2CCC(=O)N2)ccc1F [Example 148, N-(3-cyano-4-fluorophenyl)-N′-hydroxy-4-({[(2R)-5-oxopyrrolidin-2-yl]methyl}sulfanyl)-1,2,5-oxadiazole-3-carboximidamide] |
| 93.7 | 246 | 155 | 827 | CC(=O)N[C@H](CO)CSc1nonc1/C(=N/O)Nc1ccc(F)c(Br)c1 [Example 173, N-[(1R)-2-({4-[N-(3-bromo-4-fluorophenyl)-N′-hydroxycarbamimidoyl]-1,2,5-oxadiazol-3-yl}sulfanyl)-1-(hydroxymethyl)ethyl]acetamide] |
| 88 | 166 | 65.4 | 395 | CNC(=O)CSc1nonc1/C(=N/O)Nc1ccc(F)c(C#N)c1 [Example 185, 2-({4-[N-(3-cyano-4-fluorophenyl)-N′-hydroxycarbamimidoyl]-1,2,5-oxadiazol-3-yl}sulfanyl)-N-methylacetamide] |
| 69.1 | 111 | 55.1 | 475 | OC[C@@H](O)CSc1nonc1/C(=N/O)Nc1ccc(F)c(C(F)F)c1 [Example 168, N-[3-(difluoromethyl)-4-fluorophenyl]-4-{[(2R)-2,3-dihydroxypropyl]sulfanyl}-N′-hydroxy-1,2,5-oxadiazole-3-carboximidamide] |
| 60.8 | 57.2 | 35.5 | 1080 | N#Cc1cc(N/C(=N\O)c2nonc2SCCNS(=O)(=O)C2CC2)ccc1F [Example 178, N-(3-cyano-4-fluorophenyl)-4-({2-[(cyclopropylsulfonyl)amino]ethyl}sulfanyl)-N′-hydroxy-1,2,5-oxadiazole-3-carboximidamide] |
| 50.9 | 68 | 77.1 | 1270 | O=C(CSc1nonc1/C(=N/O)Nc1ccc(F)c(Br)c1)NC(CO)CO [Example 145, 2-({4-[N-(3-bromo-4-fluorophenyl)-N′-hydroxycarbamimidoyl]-1,2,5-oxadiazol-3-yl}sulfanyl)-N-[2-hydroxy-1-(hydroxymethyl)ethyl]acetamide] |
| 43.7 | 22.6 | 10 | 903 | O/N=C(\Nc1ccc(F)c(Br)c1)c1nonc1SCc1nnc[nH]1 [Example 191, N-(3-bromo-4-fluorophenyl)-N′-hydroxy-4-[(4H-1,2,4-triazol-3-ylmethyl)sulfanyl]-1,2,5-oxadiazole-3-carboximidamide] |
